A short description of series [1]: in vivo. Conditions: Sprague-Dawley, rat, iv, 1 mg/kg.
For series [2], the species on record is Rattus norvegicus. Conditions: in vivo, po, 3 mg/kg.
Series [3] is filed under the species Rattus norvegicus. Conditions: in vivo, po, 3 mg/kg. This is another data set of the same source.
Series [4] in a line: in vivo. Conditions: Sprague-Dawley, rat, iv, 1 mg/kg. This is another data set of the same source.
A short description of series [5]: in vivo. Conditions: Sprague-Dawley, rat, po, 3 mg/kg.

In general, clearance refers to the rate of elimination divided by the concentration. Low values mean a low capacity for elimination, high ones a high capacity for elimination. One may read the half-life as the time in which the quantity being followed falls by half. Low values mean rapid decline, high ones slow decline. The bioavailability is the share of a dose that reaches the circulation, judged against a reference dose that is usually intravenous. For `CCc1nc2c(C)cc(C)nc2n1Cc1ccc(/C=C/CN2CCN(C(C)C)CC2)cc1`, in the series “in vivo [1]”, the clearance was 15 mL/min/kg. Also, the Cmax/dose in the series listed under Rattus norvegicus [2] is listed as 193 nM. The AUC/dose in the series filed under Rattus norvegicus [3] is 2196 µg·min/mL. The molecule also showed a half-life in “in vivo [4]” of 336 min. Also, the bioavailability in “in vivo [5]” came to 86%.

The values above are taken from ChEMBL document CHEMBL4043105, “Design and synthesis of potent and orally active GPR4 antagonists with modulatory effects on nociception, inflammation, and angiogenesis” (Bioorg Med Chem, 2017).
